Results reported in patent US12466839B2, “Allosteric AKT inhibitors for use in the treatment of Hereditary Hemorrhagic Telangiectasia” (VADERIS THERAPEUTICS AG, priority 2020, dated 2025).

How the values were obtained:
AKT3 = AKT3 (Homo sapiens, UniProt Q9Y243); assay: Biochemical kinase assay
AKT1 = AKT1 (Homo sapiens, UniProt P31749); assay: Panel of 450 kinases; type: biochemical
Kv1.5 = Kv1.5 (Homo sapiens, UniProt P22460); assay: Cardiac ion channel profile; type: cell-based
AKT = AKT inhibition in primary lung endothelial cells with normal Eng expression (western blot); type: cell-based; settings: Mus musculus, Endothelial cell; lung ECs from controls with normal level of Eng expression; VEGF-A stimulation
Experimental: Lungs from Engflox/flox pups were surgically removed, rinsed in ice-cold DMEM and endothelial cells were isolated as described in Galaris et al., (2021) “In vitro Three-Dimensional Sprouting Assay of Angiogenesis using Mouse Embryonic Stem Cells for Vascular Disease Modeling and Drug Testing” J Vis Exp (171). In summary, tissues were minced by the use of scissors, digested in DMEM-3 mg·ml-1 Collagenase A (10103586001, Roche) for 15 min at 37° C. and then filtered through a 70-μm strainer. The cell suspension was centrifuged at 200 g for 5 min and CD45+ cells were removed using Dynabeads sheep anti-Rat IgG (11035, Invitrogen) coated with rat anti-mouse CD45 antibody (550539, BD Pharmigen). Endothelial cells were sorted using Dynabeads sheep anti-Rat IgG (11035, Invitrogen) coated with rat anti-mouse PECAM1 antibody (550274, BD Pharmigen) according to the manufacturer's instructions. After washing 5 times with DMEM-0.1% BSA, cells were seeded in 6 well plates. Lung and liver ECs were maintained for two-three passages in Endothelial Cell Growth Medium 2 (C-22011, PromoCell) complemented with Fetal Calf Serum, Human Epidermal Growth Factors, Basic Fibroblast Growth Factor, Insulin like Growth Factor, Human Vascular Endothelial Growth Factor-165, Ascorbic acid, Heparin and Hydrocortisone (C-39211, SupplementPack EC GM2, PromoCell). […]

[1] = test system: AKT kinase in Pi3Kα or PTEN mutant cells lines (e.g. MCF7, BT474 or LnCAP); assay: AKT kinase inhibition in Pi3Kα or PTEN mutant cell lines; type: cell-based; settings: read-out: IC50 range for AKT kinase inhibition
ADRA1D (DELTA2-79) = molecular target: T1, ADRA1D (DELTA2-79) (Homo sapiens, UniProt P25100); assay: Millipore Drug Discovery Safety and Liability Panel; type: cell-based
T1 construct: purchased Millipore

ADRB2 = molecular target: T2, ADRB2 (Homo sapiens, UniProt P07550); assay: as above; type: cell-based
T2 construct: purchased Millipore
T2 sequence (P07550 whole entry): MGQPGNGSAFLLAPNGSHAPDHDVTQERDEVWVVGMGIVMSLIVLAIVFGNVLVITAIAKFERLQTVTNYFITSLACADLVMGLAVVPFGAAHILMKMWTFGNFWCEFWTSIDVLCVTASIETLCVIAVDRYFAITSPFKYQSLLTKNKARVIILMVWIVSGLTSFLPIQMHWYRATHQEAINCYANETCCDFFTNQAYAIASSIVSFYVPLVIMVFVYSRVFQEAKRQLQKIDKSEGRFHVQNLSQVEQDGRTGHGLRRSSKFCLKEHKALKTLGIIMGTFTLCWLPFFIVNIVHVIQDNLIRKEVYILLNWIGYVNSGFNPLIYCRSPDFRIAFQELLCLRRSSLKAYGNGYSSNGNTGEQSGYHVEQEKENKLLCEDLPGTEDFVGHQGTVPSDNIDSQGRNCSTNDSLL

CRF1 = molecular target: T3, CRF1 (Homo sapiens, UniProt P34998); assay: as above; type: cell-based
T3 construct: purchased Millipore
T3 sequence (P34998 24-415): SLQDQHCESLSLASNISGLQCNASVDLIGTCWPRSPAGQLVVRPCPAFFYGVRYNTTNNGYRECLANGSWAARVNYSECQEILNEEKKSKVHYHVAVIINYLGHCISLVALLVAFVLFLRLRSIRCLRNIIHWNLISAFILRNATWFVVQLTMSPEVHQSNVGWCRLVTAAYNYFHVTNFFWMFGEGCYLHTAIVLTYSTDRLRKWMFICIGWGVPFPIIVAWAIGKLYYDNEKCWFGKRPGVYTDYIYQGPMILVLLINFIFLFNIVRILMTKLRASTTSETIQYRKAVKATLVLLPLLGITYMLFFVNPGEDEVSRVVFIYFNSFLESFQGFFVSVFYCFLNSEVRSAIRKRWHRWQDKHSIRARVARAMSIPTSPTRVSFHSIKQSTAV

DP = molecular target: T4, DP (Homo sapiens, UniProt Q13258); assay: as above; type: cell-based
T4 construct: purchased Millipore
T4 sequence (Q13258 whole entry): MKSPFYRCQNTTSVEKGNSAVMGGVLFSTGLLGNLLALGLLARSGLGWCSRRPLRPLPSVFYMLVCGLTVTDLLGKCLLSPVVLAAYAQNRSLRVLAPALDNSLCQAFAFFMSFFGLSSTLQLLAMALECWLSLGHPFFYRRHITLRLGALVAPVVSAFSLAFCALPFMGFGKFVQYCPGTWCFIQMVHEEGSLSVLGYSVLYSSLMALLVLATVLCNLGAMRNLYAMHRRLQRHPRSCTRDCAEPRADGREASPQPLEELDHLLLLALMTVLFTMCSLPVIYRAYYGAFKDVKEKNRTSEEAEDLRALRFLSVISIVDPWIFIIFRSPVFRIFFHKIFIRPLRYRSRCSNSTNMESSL

EP3 = molecular target: T5, EP3 (Homo sapiens, UniProt P43115); assay: as above; type: cell-based
T5 construct: purchased Millipore
T5 sequence (P43115 whole entry): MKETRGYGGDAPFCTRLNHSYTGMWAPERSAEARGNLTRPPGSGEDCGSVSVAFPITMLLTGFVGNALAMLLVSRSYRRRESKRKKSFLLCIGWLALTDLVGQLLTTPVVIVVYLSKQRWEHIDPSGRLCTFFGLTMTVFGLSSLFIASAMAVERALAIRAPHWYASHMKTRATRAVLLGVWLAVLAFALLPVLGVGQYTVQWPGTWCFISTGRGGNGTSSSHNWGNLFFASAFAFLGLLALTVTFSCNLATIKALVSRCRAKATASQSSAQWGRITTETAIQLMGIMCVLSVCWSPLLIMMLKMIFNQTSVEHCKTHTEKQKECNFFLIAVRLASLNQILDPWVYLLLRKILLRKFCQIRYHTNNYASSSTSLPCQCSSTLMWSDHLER

FPR1 = molecular target: T6, FPR1 (Homo sapiens, UniProt P21462); assay: as above; type: cell-based
T6 construct: purchased Millipore
T6 sequence (P21462 whole entry, species assumed): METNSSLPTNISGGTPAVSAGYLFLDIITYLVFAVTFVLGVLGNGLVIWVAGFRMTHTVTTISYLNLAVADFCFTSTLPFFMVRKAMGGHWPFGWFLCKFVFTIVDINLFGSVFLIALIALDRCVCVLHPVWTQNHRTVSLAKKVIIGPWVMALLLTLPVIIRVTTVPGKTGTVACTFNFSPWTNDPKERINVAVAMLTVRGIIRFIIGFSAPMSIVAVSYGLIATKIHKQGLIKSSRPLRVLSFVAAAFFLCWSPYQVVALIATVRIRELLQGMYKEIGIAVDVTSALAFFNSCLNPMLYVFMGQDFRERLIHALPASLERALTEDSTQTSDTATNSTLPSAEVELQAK

GAL1 = molecular target: T7, GAL1 (Homo sapiens, UniProt P47211); assay: as above; type: cell-based
T7 construct: purchased Millipore
T7 sequence (P47211 whole entry): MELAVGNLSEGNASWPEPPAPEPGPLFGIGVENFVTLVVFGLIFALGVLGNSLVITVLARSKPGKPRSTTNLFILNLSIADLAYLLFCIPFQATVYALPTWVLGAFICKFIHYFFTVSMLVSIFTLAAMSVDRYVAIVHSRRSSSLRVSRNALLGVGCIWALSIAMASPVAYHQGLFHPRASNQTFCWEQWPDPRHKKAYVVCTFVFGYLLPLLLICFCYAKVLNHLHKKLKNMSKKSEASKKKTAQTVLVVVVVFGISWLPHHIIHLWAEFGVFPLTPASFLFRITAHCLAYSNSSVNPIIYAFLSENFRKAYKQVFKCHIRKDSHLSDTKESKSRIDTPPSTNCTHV

IP1 = molecular target: T8, IP1 (Homo sapiens, UniProt P43119); assay: as above; type: cell-based
T8 construct: purchased Millipore
T8 sequence (P43119 whole entry): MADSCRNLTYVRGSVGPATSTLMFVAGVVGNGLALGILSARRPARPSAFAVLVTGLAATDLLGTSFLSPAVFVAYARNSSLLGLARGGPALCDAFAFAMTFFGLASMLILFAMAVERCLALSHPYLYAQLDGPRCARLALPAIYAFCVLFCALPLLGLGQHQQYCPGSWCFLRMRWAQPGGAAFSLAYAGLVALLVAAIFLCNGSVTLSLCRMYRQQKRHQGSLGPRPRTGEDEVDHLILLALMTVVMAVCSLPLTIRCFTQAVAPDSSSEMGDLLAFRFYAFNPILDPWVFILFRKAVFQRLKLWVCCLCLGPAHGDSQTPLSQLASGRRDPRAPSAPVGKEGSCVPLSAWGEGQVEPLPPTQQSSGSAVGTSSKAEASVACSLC

NTR1 = molecular target: T9, NTR1 (Homo sapiens, UniProt P30989); assay: as above; type: cell-based
T9 construct: Millipore
T9 sequence (P30989 whole entry, species assumed): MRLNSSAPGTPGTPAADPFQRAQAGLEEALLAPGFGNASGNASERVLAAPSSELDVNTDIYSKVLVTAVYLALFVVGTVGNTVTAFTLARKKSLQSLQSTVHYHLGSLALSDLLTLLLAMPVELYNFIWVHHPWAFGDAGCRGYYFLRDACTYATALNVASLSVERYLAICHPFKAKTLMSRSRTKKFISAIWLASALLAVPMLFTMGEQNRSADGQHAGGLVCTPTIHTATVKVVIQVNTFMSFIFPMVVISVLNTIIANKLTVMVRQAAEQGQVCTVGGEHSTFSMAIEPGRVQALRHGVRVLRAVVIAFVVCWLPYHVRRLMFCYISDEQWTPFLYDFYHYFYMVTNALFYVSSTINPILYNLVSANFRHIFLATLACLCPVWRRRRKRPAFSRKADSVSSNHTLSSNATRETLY

PAC1 = molecular target: T10, PAC1 (Homo sapiens, UniProt P41586); assay: as above; type: cell-based
T10 construct: Millipore
T10 sequence (P41586 21-468): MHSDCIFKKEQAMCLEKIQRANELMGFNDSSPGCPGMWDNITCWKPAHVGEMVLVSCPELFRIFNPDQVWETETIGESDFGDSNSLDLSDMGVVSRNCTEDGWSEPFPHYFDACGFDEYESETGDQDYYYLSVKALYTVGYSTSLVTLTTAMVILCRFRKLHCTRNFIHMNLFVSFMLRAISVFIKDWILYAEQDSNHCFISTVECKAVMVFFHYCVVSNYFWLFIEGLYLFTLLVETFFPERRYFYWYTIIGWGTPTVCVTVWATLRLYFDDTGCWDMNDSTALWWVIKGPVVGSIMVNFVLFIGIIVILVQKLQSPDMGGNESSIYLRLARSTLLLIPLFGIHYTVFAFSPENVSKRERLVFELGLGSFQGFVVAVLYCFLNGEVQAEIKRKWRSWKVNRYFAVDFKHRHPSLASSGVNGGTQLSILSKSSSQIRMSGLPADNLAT

PRP = molecular target: T11, PRP (Homo sapiens, UniProt P49683); assay: as above; type: cell-based
T11 construct: Millipore
T11 sequence (P49683 whole entry): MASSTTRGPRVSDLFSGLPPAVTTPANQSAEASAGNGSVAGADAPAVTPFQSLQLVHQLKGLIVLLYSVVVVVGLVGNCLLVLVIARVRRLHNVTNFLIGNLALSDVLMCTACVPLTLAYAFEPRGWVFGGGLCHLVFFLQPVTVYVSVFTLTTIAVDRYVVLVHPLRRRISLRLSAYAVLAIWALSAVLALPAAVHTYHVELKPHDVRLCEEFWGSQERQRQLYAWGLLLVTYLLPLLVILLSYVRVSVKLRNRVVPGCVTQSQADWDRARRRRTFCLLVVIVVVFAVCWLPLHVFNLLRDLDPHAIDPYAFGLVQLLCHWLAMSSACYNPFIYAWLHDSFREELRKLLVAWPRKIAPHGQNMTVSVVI

TP = molecular target: T12, TP (Homo sapiens, UniProt P21731); assay: as above; type: cell-based
T12 construct: Millipore
T12 sequence (P21731 whole entry): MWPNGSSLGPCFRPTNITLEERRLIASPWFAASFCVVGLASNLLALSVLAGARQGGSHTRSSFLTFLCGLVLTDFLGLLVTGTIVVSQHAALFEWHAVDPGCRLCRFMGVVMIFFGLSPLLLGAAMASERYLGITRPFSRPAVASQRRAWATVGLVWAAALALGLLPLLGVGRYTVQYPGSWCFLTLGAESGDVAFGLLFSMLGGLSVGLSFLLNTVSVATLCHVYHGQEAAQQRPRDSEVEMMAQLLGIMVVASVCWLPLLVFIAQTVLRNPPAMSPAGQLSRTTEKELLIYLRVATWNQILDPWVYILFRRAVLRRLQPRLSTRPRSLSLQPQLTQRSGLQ

[2] = read-out: ANTAGONIST mean % inhibition

Sequence of AKT3 (Q9Y243 whole entry): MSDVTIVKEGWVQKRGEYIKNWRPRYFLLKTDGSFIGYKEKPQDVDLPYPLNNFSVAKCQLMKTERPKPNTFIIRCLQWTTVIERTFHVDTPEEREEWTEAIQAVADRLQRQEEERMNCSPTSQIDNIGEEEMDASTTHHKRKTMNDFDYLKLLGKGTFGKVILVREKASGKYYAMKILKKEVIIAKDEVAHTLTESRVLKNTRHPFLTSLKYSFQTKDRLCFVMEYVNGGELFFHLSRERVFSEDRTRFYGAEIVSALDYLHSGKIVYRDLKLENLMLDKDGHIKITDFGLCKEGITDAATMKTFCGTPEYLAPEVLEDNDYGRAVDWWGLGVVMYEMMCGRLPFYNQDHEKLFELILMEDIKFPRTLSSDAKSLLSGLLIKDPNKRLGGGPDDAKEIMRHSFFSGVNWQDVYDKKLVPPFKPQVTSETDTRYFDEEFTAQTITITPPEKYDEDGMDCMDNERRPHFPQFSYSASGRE

CCN1C(=O)COc2nc(-c3ccc(C4(N)CC(O)C4)cc3)c(-c3ccccc3)cc21.O=C(O)C(O)C(O)C(=O)O [VAD044, 6-(4-(1-amino-3-hydroxycyclobutyl)phenyl)-1-ethyl-7-phenyl-1H-pyrido[2,3-b][1,4]oxazin-2(3H)-one L-tartrate]
IC50 (AKT3): > 500 nM | EC50 (AKT3; read-out: EC50 value for the AKT3 isoform): > 500 nM | inhibition at 10 µM (AKT1): 89% | inhibition at 10 µM (Kv1.5): < 25% | IC50 (AKT): 55 nM | IC50 [1]: 50 to 130 nM | activation at 10 µM (ADRA1D (DELTA2-79); ADRA1D (DELTA2-79), 10 μM, read-out: AGONIST mean % increase in activity): -0.1% | inhibition at 10 µM (ADRA1D (DELTA2-79); [2]): 7% | activation at 10 µM (ADRB2; ADRB2, 10 μM, read-out: AGONIST mean % increase in activity): 0.8% | inhibition at 10 µM (ADRB2; [2]): 6.1% | activation at 10 µM (CRF1; CRF1, 10 μM, read-out: AGONIST mean % increase in activity): 0% | inhibition at 10 µM (CRF1; [2]): 2.3% | activation at 10 µM (DP; DP, 10 μM, read-out: AGONIST mean % increase in activity): -1.7% | inhibition at 10 µM (DP; [2]): 5.8% | activation at 10 µM (EP3; EP3, 10 μM, read-out: AGONIST mean % increase in activity): -0.1% | inhibition at 10 µM (EP3; [2]): 9.2% | activation at 10 µM (FPR1; FPR1, 10 μM, read-out: AGONIST mean % increase in activity): -0.1% | inhibition at 10 µM (FPR1; [2]): 13.3% | activation at 10 µM (GAL1; GAL1, 10 μM, read-out: AGONIST mean % increase in activity): 0.3% | inhibition at 10 µM (GAL1; [2]): 3.4% | activation at 10 µM (IP1; IP1, 10 μM, read-out: AGONIST mean % increase in activity): 1.1% | inhibition at 10 µM (IP1; [2]): -2.6% | activation at 10 µM (NTR1; NTR1, 10 μM, read-out: AGONIST mean % increase in activity): -0.6% | inhibition at 10 µM (NTR1; [2]): 6.1% | activation at 10 µM (PAC1; PAC1, 10 μM, read-out: AGONIST mean % increase in activity): -0.6% | inhibition at 10 µM (PAC1; [2]): 1.1% | activation at 10 µM (PRP; read-out: AGONIST mean % increase in activity): -0.5% | inhibition at 10 µM (PRP; [2]): 23.2% | activation at 10 µM (TP; TP, 10 μM, read-out: AGONIST mean % increase in activity): -0.5% | inhibition at 10 µM (TP; [2]): 0%
